# Where two headings read alike, the source gives them in different places.
# Assays:
# CYP2D6 = molecular target: T1, CYP2D6 (Homo sapiens, UniProt P10635); assay: Metabolic stability in Human CYP2D6 Supersomes; assay type: in vitro ADME; conditions: human, recombinant human CYP2D6 Supersomes
# T1 construct: purchased Corning Gentest
# Method: (§1) Evaluation of Metabolic Stability in Human CYP2D6 Supersomes™
# (§2) Materials: CYP2D6 Supersomes™ were obtained from Corning Gentest. β-nicotinamide adenine dinucleotide phosphate, reduced form (NADPH), magnesium chloride (MgCl2), and dimethyl sulfoxide (DMSO) were purchased from Sigma-Aldrich. D-Eliglustat compounds were supplied by Concert Pharmaceuticals.
# (§3) Determination of Metabolic Stability: 10 mM stock solutions of test compounds were prepared in DMSO. […] The CYP2D6 supersomes were diluted to 5 pmol/mL in 0.1 M potassium phosphate buffer, pH 7.4, containing 3 mM MgCl2. The diluted supersomes were added to wells of a 96-well deep-well polypropylene plate in triplicate. […] Reactions were initiated by addition of pre-warmed NADPH solution. The final reaction volume was 0.5 mL and contained 5 pmol/mL CYP2D6 supersomes, 0.25 μM test compound, and 2 mM NADPH in 0.1 M potassium phosphate buffer, pH 7.4, and 3 mM MgCl2. The reaction mixtures were incubated at 37° C. and 50 μL aliquots were removed at 0, 5, 10, 20, and 30 minutes and added to shallow-well 96-well plates which contained 50 μL of ice-cold ACN with internal standard to stop the reactions. The plates were stored at 4° C. for 20 minutes after which 100 μL of water was added to the wells of the plate before centrifugation to pellet precipitated proteins. Supernatants were transferred to another 96-well plate and analyzed for amounts of parent remaining by LC-MS/MS using an Applied Bio-systems mass spectrometer.
# (§4) Data analysis: The in vitro t1/2s for test compounds were calculated from the slopes of the linear regression of % parent remaining (ln) vs incubation time relationship.
# (§5) k=−[slope of linear regression of % parent remaining (ln) vs incubation time]
# (§6) Data analysis was performed using Microsoft Excel Software.
# Human CYP2D6 Supersomes = molecular target: T2, Human CYP2D6 Supersomes (Homo sapiens, UniProt P10635); assay: Metabolic stability in Human CYP2D6 Supersomes; assay type: in vitro ADME; conditions: Table 4a; for t1/2 (minutes) Experiment 2 / t1/2 (minutes) Experiment 1: 5 pmol/mL CYP2D6 supersomes, 0.25 μM test compound, 2 mM NADPH, 37° C.; for t1/2 (minutes) Experiment 1: parent remaining by LC-MS/MS; for t1/2 (minutes) Ave ± SD: average of Experiments 1 and 2
# T2 construct: purchased Corning Gentest
# Method: as §1, §2, §3, §4, §5, §6
# T2 sequence (P10635 whole entry): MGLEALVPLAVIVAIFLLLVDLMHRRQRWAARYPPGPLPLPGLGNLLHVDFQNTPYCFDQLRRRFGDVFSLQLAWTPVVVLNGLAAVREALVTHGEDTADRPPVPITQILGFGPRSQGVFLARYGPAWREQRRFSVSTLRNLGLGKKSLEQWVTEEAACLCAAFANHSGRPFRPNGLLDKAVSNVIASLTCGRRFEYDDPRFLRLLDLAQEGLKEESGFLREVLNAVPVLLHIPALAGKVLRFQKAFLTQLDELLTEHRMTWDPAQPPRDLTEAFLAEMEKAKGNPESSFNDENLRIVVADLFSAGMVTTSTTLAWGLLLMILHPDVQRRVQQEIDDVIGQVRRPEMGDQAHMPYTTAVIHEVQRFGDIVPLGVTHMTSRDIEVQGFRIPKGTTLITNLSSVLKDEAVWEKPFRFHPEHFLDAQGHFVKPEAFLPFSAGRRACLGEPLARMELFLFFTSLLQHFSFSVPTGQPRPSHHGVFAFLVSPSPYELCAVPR
# T1 sequence (P10635 whole entry): as above
Molecule,"half-life at 0.25 μM (CYP2D6; pH 7.4, Table 4a, 5 pmol/mL CYP2D6 supersomes, 0.25 μM test compound, 2 mM NADPH, 37° C., parent remaining by LC-MS/MS, read-out: t1/2 (minutes) Experiment 1) [min]","half-life at 0.25 μM (CYP2D6; pH 7.4, Table 4a, 5 pmol/mL CYP2D6 supersomes, 0.25 μM test compound, 2 mM NADPH, 37° C., read-out: t1/2 (minutes) Experiment 2) [min]","half-life at 0.25 μM (CYP2D6; pH 7.4, Table 4a, average of Experiments 1 and 2, read-out: t1/2 (minutes) Ave ± SD) [min]","half-life at 0.25 μM (CYP2D6; pH 7.4, Table 4b, Human CYP2D6 Supersomes, read-out: t1/2 (minutes) Experiment 1) [min]","half-life at 0.25 μM (CYP2D6; pH 7.4, Table 4b, Human CYP2D6 Supersomes, read-out: t1/2 (minutes) Experiment 2) [min]","half-life at 0.25 μM (CYP2D6; pH 7.4, Table 4b, average of Experiments 1 and 2, read-out: t1/2 (minutes) Ave ± SD) [min]",t1/2 (minutes) Experiment 2 (Human CYP2D6 Supersomes) [min],t1/2 (minutes) Experiment 1 (Human CYP2D6 Supersomes) [min],t1/2 (minutes) Ave ± SD (Human CYP2D6 Supersomes) [min],% Δ of t1/2 = [(deuterated species) − (nondeuterated species)](100)/(nondeuterated species) (Human CYP2D6 Supersomes; versus Eliglustat (D0)) [%]
"CCCCCCCC(=O)N[C@H](CN1CCCC1)[C@H](O)c1ccc2c(c1)OCCO2 [Eliglustat (D0), N-[2-(2,3-dihydro-1,4-benzodioxin-6-yl)-2(R)-hydroxy-1(R)-(pyrrolidin-1-ylmethyl)ethyl]octanamide, reference compound]",6.6,5.1,6.7 ± 1.5,9.7,6.3,8 ± 2.4,–,–,–,–
"N-((1R,2R)-1-(2,3-Dihydrobenzo[b][1,4]dioxin-6-yl-2,2,3,3-d4)-1-hydroxy-3-(pyrrolidin-1-yl-d8)propan-2-yl)octanamide hemi-L-tartaric acid salt [Compound 118]",–,–,–,–,–,–,5.9,5.6,5.8 ± 0.2,–
"N-((1R,2R)-1-(2,3-dihydrobenzo[b][1,4]dioxin-6-yl)-1-hydroxy-3-(pyrrolidin-2-yl-3,3-d2)octan-d15-amide hemi-L-tartaric acid salt [Compound 171]",–,–,–,–,–,–,17.1,12.3,14.7 ± 3.4,119

# From patent US9783528B2, “Inhibitors of the enzyme UDP-glucose: N-acyl-sphingosine glucosyltransferase” (Concert Pharmaceuticals, Inc., priority 2013, dated 2017)
